Data as given in PubChem BioAssay AID1963828 (Molecular Pharmacology Branch, DTP, NCI, 2024).

Tested on: 991263-137-R1-J2-PDC complex spheroid viability
Test: Anticancer human tumor 991263-137-R1-J2-PDC patient-derived colon adenocarcinoma cell line growth inhibition [POLQ]
Settings: for IC50: curve of first compound; for viability, T/C: stronger effect = lower value
Method in brief: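 PDC + HUVEC + MSC complex spheroids; POLQ inhibitors ± partner drugs; top conc. at/near clinical Cmax, else 10 microM (SN-38 1 microM), half-log dilutions; 37 degrees C, 5% CO2.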

[1] = second compound 0.0316 µM, first compound 0.0316 µM
[2] = second compound 0.0316 µM, first compound 0.1 µM
[3] = second compound 0.0316 µM, first compound 0.316 µM
[4] = second compound 0.0316 µM, first compound 1 µM
[5] = second compound 0.0316 µM, first compound 3.16 µM
[6] = second compound 0.0316 µM, first compound 10 µM
[7] = second compound 0.1 µM, first compound 0.0316 µM
[8] = second compound 0.1 µM, first compound 0.1 µM
[9] = second compound 0.1 µM, first compound 0.316 µM
[10] = second compound 0.1 µM, first compound 1 µM
[11] = second compound 0.1 µM, first compound 3.16 µM
[12] = second compound 0.1 µM, first compound 10 µM
[13] = second compound 0.316 µM, first compound 0.0316 µM
[14] = second compound 0.316 µM, first compound 0.1 µM
[15] = second compound 0.316 µM, first compound 0.316 µM
[16] = second compound 0.316 µM, first compound 1 µM
[17] = second compound 0.316 µM, first compound 3.16 µM
[18] = second compound 0.316 µM, first compound 10 µM
[19] = second compound 1 µM, first compound 0.0316 µM
[20] = second compound 1 µM, first compound 0.1 µM
[21] = second compound 1 µM, first compound 0.316 µM
[22] = second compound 1 µM, first compound 1 µM
[23] = second compound 1 µM, first compound 3.16 µM
[24] = second compound 1 µM, first compound 10 µM
[25] = second compound 3.16 µM, first compound 0.0316 µM
[26] = second compound 3.16 µM, first compound 0.1 µM
[27] = second compound 3.16 µM, first compound 0.316 µM
[28] = second compound 3.16 µM, first compound 1 µM
[29] = second compound 3.16 µM, first compound 3.16 µM
[30] = second compound 3.16 µM, first compound 10 µM
[31] = second compound 10 µM, first compound 0.0316 µM
[32] = second compound 10 µM, first compound 0.1 µM
[33] = second compound 10 µM, first compound 0.316 µM
[34] = second compound 10 µM, first compound 1 µM
[35] = second compound 10 µM, first compound 3.16 µM
[36] = second compound 10 µM, first compound 10 µM
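Further: spheroids exposed to compounds for 7 days before readout.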
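Wherever viability, T/C is given: 100% = DMSO vehicle control viability.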

`O=C(c1cc(Cc2n[nH]c(=O)c3ccccc23)ccc1F)N1CCN(C(=O)C2CC2)CC1` + Nc1ccc(C#CCN(C(=O)Cc2ncc(C(F)(F)F)cc2C(F)(F)F)c2ccc(F)cc2)nn1 was tested, and the IC50 (second compound 0.0316 µM) was > 10 µM, the IC50 (second compound 0.1 µM) was > 10 µM and the IC50 (second compound 0.316 µM) was > 10 µM. For the same molecule, the IC50 (second compound 1 µM) was > 10 µM, the IC50 (second compound 3.16 µM) was > 10 µM and the IC50 (second compound 10 µM) was > 10 µM. For the same molecule, the viability, T/C [1] was 105%, the viability, T/C [2] was 101% and the viability, T/C [3] was 90.1%. For the same molecule, the viability, T/C [4] was 98.5%, the viability, T/C [5] was 98.2% and the viability, T/C [6] was 99.8%. It also gave a viability, T/C [7] of 101%, a viability, T/C [8] of 97.4% and a viability, T/C [9] of 90.3%. The viability, T/C [10] was 96.1%, the viability, T/C [11] was 110% and the viability, T/C [12] was 90%. For the same molecule, the viability, T/C [13] was 106%, the viability, T/C [14] was 104% and the viability, T/C [15] was 93.8%. The viability, T/C [16] was 97%, the viability, T/C [17] was 101% and the viability, T/C [18] was 97.2%. It also gave a viability, T/C [19] of 104%, a viability, T/C [20] of 96.1% and a viability, T/C [21] of 94.3%. The viability, T/C [22] was 90.3%, the viability, T/C [23] was 105% and the viability, T/C [24] was 90.4%. It also gave a viability, T/C [25] of 103%, a viability, T/C [26] of 103% and a viability, T/C [27] of 95.4%. The viability, T/C [28] was 100%, the viability, T/C [29] was 105% and the viability, T/C [30] was 105%. The viability, T/C [31] was 95.5%, the viability, T/C [32] was 93.6% and the viability, T/C [33] was 104%. The viability, T/C [34] was 96.7%, the viability, T/C [35] was 97.1% and the viability, T/C [36] was 102%.

For `CC1COCCN1c1cc(C2(S(C)(=N)=O)CC2)nc(-c2ccnc3[nH]ccc23)n1` (centres undefined) + Nc1ccc(C#CCN(C(=O)Cc2ncc(C(F)(F)F)cc2C(F)(F)F)c2ccc(F)cc2)nn1, the IC50 (second compound 0.0316 µM) was > 10 µM, the IC50 (second compound 0.1 µM) was > 10 µM and the IC50 (second compound 0.316 µM) was > 10 µM. The IC50 (second compound 1 µM) was > 10 µM, the IC50 (second compound 3.16 µM) was > 10 µM and the IC50 (second compound 10 µM) was > 10 µM. For the same molecule, the viability, T/C [1] was 100%, the viability, T/C [2] was 104% and the viability, T/C [3] was 108%. For the same molecule, the viability, T/C [4] was 109%, the viability, T/C [5] was 97.5% and the viability, T/C [6] was 86%. The viability, T/C [7] was 114%, the viability, T/C [8] was 110% and the viability, T/C [9] was 93.9%. It also gave a viability, T/C [10] of 105%, a viability, T/C [11] of 108% and a viability, T/C [12] of 97.2%. For the same molecule, the viability, T/C [13] was 97.7%, the viability, T/C [14] was 103% and the viability, T/C [15] was 110%. For the same molecule, the viability, T/C [16] was 103%, the viability, T/C [17] was 108% and the viability, T/C [18] was 89.2%. It also gave a viability, T/C [19] of 119%, a viability, T/C [20] of 109% and a viability, T/C [21] of 106%. For the same molecule, the viability, T/C [22] was 106%, the viability, T/C [23] was 104% and the viability, T/C [24] was 85.1%. For the same molecule, the viability, T/C [25] was 101%, the viability, T/C [26] was 102% and the viability, T/C [27] was 102%. For the same molecule, the viability, T/C [28] was 97.5%, the viability, T/C [29] was 101% and the viability, T/C [30] was 83.9%. For the same molecule, the viability, T/C [31] was 109%, the viability, T/C [32] was 106% and the viability, T/C [33] was 115%. For the same molecule, the viability, T/C [34] was 99.5%, the viability, T/C [35] was 93.4% and the viability, T/C [36] was 63.6%.
